The values that follow come from patent US20260042735A1, “BENZYLTRYPTAMINE COMPOUNDS” (priority 2021, published 2026).

Like-named read-outs stand apart in the source and are kept apart here.

One data set concerns cancer patients. The note with it: high-dose, 6-month follow-up; cited from earlier work.
Data set [1] deals with patients with alcohol dependence. The note with it: 10 patients with alcohol dependence; cited from earlier work.
For data set [2], the system named is participants with tobacco addiction. The note with it: cited from earlier work.
Another data set addresses SERT (Homo sapiens (Human), UniProt P31645). The note with it: cited from earlier work.
Another data set addresses 5-HT1B (Homo sapiens (Human), UniProt P28222). The note with it: cited from earlier work.
A further data set deals with 5-HT1D (Homo sapiens (Human), UniProt P28221). The settings on record: cited from earlier work.
The next data set addresses 5-HT3 (Homo sapiens (Human), UniProt P46098). The note with it: read-out: Ki 5-HT3; cited from earlier work.
The next data set has as its target 5-HT5 (Homo sapiens (Human), UniProt P47898). The note with it: cited from earlier work.
Another data set deals with 5-HT6 (Homo sapiens (Human), UniProt P50406). The note with it: cited from earlier work.
For the next data set, the target named is 5-HT7 (Homo sapiens (Human), UniProt P34969). The settings on record: cited from earlier work.
In a further data set the test system is dopamine receptors. The note with it: cited from earlier work.
A further data set concerns patients. The note with it: cited from earlier work.
Data set [3] has as its target T1, human 5-HT2A receptor (Homo sapiens (Human), UniProt P28223). The note with it: cited from earlier work.
The target in data set [4] is T2, 5HT2B receptor (Homo sapiens, UniProt P41595). The note with it: cited from earlier work.
Target sequence in this assay (P41595 whole entry, looked up): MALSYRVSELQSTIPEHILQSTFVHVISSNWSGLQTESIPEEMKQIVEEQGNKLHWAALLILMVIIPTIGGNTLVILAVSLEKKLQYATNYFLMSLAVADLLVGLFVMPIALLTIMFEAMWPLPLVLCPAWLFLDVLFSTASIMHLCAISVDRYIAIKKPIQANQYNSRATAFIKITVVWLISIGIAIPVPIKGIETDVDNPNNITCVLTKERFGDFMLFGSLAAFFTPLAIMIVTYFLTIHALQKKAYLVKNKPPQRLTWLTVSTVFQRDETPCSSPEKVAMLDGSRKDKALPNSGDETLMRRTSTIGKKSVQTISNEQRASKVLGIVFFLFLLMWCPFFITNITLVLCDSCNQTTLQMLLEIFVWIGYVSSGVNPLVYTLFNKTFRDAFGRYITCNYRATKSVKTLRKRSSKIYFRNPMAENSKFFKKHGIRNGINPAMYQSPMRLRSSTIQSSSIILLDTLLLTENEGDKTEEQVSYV
The target in data set [5] is T3, 5HT2C receptor (Homo sapiens, UniProt P28335). The settings on record: cited from earlier work.
Data set [6] concerns the target T2, 5HT2B receptor. The note with it: cited from earlier work. This is another data set of the same source.
Target sequence in this assay (P41595 whole entry, looked up): as above
In the next data set the test system is mouse OCD model. The settings on record: cited from earlier work.
Another data set relates to mouse head twitch. The settings on record: much lower potency relative to psilocin; cited from earlier work.
The target in a further data set is human recombinant 5-HT1A (Homo sapiens (Human), UniProt P08908). The data set is described as follows: 5HT1A competitive binding assay (Eurofins Cerep).
For data set [7], the target named is T1, human 5-HT2A receptor. The data set is described as follows: 5HT2A functional assay (agonism). Type of data set: cell-based.
In data set [8] the target is T2, 5HT2B receptor. The data set is described as follows: 5HT2B competitive binding assay. The settings on record: 125I-DOI 0.2 nM, CHO cells, Cheng Prusoff; read-out: 5HT2B binding constant Ki.
Data set [9] deals with T2, 5HT2B receptor. The data set is described as follows: 5HT2B (IP1) functional agonist assay. The note with it: CHO cells, HTRF, serotonin 1 uM control. Type of data set: cell-based. Background: In TR-FRET formats the signal depends on donor and acceptor labels being close together.
Target sequence in this assay (P41595 whole entry): as the sequence (P41595 whole entry, looked up) above
Data set [10] concerns the target T2, 5HT2B receptor. Description: 5HT2B functional antagonist assay. It is filed as cell-based. The procedure:
Quantification of myo-Inositol-1-phosphate was performed using HTRF.
Target sequence in this assay (P41595 whole entry): as the sequence (P41595 whole entry, looked up) above

A short description of data set [11]: Pharmacokinetics after i.v. administration in rats. Type of data set: in vivo. The note with it: plasma, iv; rat, i.v. 1.0 mg/kg. The procedure: (§1) The compound of Example 1 was dispersed in water containing phosphate buffered saline at a rate of 1 mg/ml and then acidified to pH 4 to create a solution. The solution was administered to each of 3 rats (ca. 300 g each) at a rate of 1.0 mg/kg (ca. dose 0.33 ml, […]) via a catheter placed in the jugular vein. Animals were observed over a period of 12 h with counting the cumulative number head-twitch actions over each 10 min up to 2 hours and then for 10 min each at 3, 3.5 and 4 hours. Blood samples (0.25 ml) were collected via the catheter using 1 ml syringes into 0.8 ml K2EDTA tubes at 0.0833, 0.25, 0.5, 0.75, 1, 2, 4, 6 hours after the dose and placed on wet ice until processing. Psychological saline (0.25 ml) was reinjected after each blood draw via the catheter to the animal to flush the catheter and replenish blood volumes. The blood samples collected were centrifuged (3200 g, 5 min, 4 C) within 5 min of collection and the plasma recovered and placed in a cryovial and frozen in liquid nitrogen and stored at −80 C thereafter until analysis. A bioanalytical method was developed to quantify the compound in plasma using a Sciex 6500 Q-trap MSMS equipped with a standard LC system and after calibration with the compound of the example.

Another data set concerns rats. Description: Head-twitch counting during rat i.v. PK experiment. The settings on record: i.v. 1.0 mg/kg, duration of PK experiment. It is filed as in vivo. As to the method:
as §1

A further data set concerns the target Adrenergic Alpha 1A (Homo sapiens (Human), UniProt P35348). Description: Functional GCPR assay, inhibition, Adrenergic Alpha 1A. The settings on record: read-out: IC50 (A1A) inhibition in functional GCPR assay. Type of data set: cell-based.
Another data set has as its target Adrenergic Alpha 2A (Homo sapiens (Human), UniProt P08913). The data set is described as follows: Functional GCPR assay, inhibition, Adrenergic Alpha 2A. Type of data set: cell-based. The settings on record: read-out: IC50 (A2A) inhibition in functional GCPR assay.
Data set [12] deals with 5HT2C receptor. The note with it: binding Ki ratio.
In data set [13] the target is T3, 5HT2C receptor. Description: biochemical.

T3 sequence (P28335 33-458 limits assumed): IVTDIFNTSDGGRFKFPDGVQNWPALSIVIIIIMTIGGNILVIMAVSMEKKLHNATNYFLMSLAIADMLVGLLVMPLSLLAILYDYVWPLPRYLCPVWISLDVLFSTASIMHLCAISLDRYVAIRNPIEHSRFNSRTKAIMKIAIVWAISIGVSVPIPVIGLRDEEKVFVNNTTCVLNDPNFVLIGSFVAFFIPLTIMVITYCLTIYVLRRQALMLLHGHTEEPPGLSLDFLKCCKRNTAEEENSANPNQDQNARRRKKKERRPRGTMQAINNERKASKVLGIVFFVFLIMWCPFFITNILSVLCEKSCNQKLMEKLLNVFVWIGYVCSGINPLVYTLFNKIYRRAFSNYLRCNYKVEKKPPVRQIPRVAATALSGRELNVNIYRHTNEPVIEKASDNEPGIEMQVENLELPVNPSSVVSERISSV
5-HT3, sequence (P46098 whole entry, looked up, species assumed): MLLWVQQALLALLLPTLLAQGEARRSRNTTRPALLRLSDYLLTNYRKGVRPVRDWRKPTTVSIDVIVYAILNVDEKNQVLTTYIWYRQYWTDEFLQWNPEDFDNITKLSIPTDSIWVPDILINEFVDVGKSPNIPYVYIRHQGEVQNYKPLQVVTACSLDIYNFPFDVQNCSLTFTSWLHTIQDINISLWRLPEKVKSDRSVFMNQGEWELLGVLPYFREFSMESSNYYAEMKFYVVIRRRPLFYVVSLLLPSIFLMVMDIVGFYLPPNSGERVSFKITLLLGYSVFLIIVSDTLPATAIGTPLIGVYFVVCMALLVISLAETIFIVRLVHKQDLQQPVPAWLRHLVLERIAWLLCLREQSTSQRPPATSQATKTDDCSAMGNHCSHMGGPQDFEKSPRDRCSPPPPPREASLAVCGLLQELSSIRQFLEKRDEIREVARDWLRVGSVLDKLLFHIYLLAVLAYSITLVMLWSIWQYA
5-HT1D, sequence (P28221 whole entry, looked up, species assumed): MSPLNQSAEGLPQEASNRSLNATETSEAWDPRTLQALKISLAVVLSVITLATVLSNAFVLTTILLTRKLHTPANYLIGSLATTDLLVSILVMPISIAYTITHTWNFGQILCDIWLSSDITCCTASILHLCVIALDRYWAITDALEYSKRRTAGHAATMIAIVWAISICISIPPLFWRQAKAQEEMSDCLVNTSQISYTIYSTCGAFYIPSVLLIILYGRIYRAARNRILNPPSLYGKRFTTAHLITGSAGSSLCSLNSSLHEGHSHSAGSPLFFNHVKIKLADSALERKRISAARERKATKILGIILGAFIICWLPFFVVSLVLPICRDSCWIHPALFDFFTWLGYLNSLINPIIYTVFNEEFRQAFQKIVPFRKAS
Adrenergic Alpha 2A, sequence (P08913 whole entry): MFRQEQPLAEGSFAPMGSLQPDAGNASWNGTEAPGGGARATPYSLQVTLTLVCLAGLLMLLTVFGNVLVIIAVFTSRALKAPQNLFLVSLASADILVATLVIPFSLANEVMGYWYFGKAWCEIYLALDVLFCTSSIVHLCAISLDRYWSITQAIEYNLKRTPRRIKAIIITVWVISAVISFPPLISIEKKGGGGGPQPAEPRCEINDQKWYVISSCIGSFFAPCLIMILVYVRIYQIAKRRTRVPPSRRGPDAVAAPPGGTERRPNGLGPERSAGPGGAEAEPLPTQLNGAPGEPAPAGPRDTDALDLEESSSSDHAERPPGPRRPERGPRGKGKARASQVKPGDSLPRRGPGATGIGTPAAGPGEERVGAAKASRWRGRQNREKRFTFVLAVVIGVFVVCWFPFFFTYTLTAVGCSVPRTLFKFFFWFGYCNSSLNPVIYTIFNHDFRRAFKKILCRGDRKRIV
5-HT6, sequence (P50406 whole entry, looked up, species assumed): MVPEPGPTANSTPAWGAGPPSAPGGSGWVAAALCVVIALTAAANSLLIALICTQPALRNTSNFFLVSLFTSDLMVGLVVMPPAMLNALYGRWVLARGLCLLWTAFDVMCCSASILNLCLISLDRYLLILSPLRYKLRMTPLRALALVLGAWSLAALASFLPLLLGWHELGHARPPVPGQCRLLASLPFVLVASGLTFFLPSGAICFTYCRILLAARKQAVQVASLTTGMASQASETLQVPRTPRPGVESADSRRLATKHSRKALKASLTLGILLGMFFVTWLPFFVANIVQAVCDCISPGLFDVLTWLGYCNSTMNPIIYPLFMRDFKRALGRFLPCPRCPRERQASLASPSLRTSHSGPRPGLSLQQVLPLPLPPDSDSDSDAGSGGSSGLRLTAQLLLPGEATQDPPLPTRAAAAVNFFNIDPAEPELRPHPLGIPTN
5-HT7, sequence (P34969 whole entry, looked up, species assumed): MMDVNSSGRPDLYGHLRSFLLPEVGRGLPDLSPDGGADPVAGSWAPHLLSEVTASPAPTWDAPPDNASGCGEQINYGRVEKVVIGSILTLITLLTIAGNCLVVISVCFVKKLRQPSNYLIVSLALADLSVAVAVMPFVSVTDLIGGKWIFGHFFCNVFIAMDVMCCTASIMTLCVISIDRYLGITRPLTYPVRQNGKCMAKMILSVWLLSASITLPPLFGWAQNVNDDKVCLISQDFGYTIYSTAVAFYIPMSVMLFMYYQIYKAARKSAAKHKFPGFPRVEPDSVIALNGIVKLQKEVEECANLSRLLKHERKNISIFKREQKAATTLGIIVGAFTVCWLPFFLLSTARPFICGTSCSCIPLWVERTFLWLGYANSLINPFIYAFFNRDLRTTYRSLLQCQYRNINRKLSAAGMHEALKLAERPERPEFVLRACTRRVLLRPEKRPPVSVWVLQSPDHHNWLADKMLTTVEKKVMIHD
Adrenergic Alpha 1A, sequence (P35348 whole entry): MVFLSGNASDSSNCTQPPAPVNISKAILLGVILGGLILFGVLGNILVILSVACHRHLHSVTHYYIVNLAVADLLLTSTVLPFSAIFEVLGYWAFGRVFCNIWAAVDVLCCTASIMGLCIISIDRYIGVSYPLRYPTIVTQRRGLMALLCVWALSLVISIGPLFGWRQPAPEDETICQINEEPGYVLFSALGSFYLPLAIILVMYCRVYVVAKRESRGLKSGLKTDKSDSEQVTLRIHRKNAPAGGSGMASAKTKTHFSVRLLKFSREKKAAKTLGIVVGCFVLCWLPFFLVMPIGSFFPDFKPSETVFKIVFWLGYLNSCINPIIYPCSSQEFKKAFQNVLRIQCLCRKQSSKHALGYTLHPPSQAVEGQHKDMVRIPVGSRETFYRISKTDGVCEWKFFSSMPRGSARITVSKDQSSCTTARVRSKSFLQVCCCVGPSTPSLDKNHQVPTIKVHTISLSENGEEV
5-HT5, sequence (P47898 whole entry, looked up, species assumed): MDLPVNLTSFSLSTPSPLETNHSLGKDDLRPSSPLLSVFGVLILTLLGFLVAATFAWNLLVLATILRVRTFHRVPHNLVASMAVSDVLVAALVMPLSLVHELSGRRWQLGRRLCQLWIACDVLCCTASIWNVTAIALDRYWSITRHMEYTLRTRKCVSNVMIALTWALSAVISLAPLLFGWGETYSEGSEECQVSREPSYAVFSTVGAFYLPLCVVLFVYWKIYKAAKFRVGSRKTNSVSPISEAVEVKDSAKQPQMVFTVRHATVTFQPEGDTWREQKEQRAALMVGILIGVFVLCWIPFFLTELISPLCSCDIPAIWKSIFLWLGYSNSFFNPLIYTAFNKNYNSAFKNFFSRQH
5-HT1B, sequence (P28222 whole entry, looked up, species assumed): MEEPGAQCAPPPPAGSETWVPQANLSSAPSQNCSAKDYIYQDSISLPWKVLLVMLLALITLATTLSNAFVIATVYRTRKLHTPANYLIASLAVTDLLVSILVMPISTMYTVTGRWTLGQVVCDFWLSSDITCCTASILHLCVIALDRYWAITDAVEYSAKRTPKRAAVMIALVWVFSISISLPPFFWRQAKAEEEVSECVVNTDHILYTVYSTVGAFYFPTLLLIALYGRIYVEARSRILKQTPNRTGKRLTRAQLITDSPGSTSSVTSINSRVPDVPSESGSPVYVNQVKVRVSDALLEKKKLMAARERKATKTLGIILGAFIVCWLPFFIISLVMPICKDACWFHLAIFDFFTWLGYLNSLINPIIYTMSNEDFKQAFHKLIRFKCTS

Consider `CN(C)CCc1c[nH]c2cccc(OP(=O)(O)O)c12` [psilocybin], for which, in the data set with cancer patients, the “Participants continuing to show clinically significant decreases in depressed mood and anxiety” value is “about 80%”. Further, in [1], the “Alcohol use post administration” value is “significant decrease in alcohol use”. The Participants abstinent in [2] (2.5 years after the target quit date) was 75%. Also, the “Participants with biologically verified 7-day point-prevalence abstinence” value in data set [2] (6-month follow up) is recorded as “eighty”. Moreover, in data set [2] (12-month follow-up), the “Participants biologically verified as abstinent” value was 67%.

Consider `CN(C)CCc1c[nH]c2cccc(O)c12` [Psilocin, psilocin], for which the Ki (commonly the dissociation constant of the complex between target and ligand, obtained from inhibition or displacement) on SERT was 3800 nM; at 5-HT1B, 219 nM; at 5-HT1D, 36 nM; at 5-HT3, above 10000 nM; on 5-HT5 it was 84 nM; on 5-HT6, 57 nM. At 5-HT7, the Ki was 3.5 nM. The “Effect on dopamine receptors” value in the data set on dopamine receptors is reported as “no significant effect”.

With `C[C@H]1CNCCc2ccc(Cl)cc21` [Locaserin], the “Risk of cardiac valvulopathy” value in the data set with patients is reported as “no increased risk of cardiac valvulopathy”.

Turning to `CN(C)CCc1cn(C)c2cccc(O)c12` [compound 1], the “Functional efficacy response vs serotonin, 5-HT2A” value at human 5-HT2A receptor [3] is recorded as “ca. 30%”. Also, the EC50 was 633 nM on human 5-HT2A receptor [3] (phosphoinositol hydrolysis, read-out: Agonist potency at human 5-HT2A receptor) and 12 nM on 5HT2C receptor [5] (phosphoinositol hydrolysis, read-out: Agonist potency at human 5-HT2C receptor). In addition, the “Agonist activity at 5-HT2B receptors” value at 5HT2B receptor [4] was “inactive”. Also, the “Functional efficacy response vs serotonin, 5-HT2C” value at 5HT2C receptor [5] (serotonin set at 100%) was “ca. 45%”. The “Antagonist potency at 5-HT2B receptors” value on 5HT2B receptor [6] is given as 38 nM. The “Efficacy in mouse OCD model” value with mouse OCD model is listed as “efficacy in a mouse OCD model demonstrated”. In the data set with mouse head twitch, the “Efficacy in mouse head twitch assay” value is “efficacious”.

In the case of `COc1ccc2[nH]cc(CCN(C)Cc3ccccc3OC)c2c1` [Example 1], the Ki on human recombinant 5-HT1A ([3H]8-OHDPAT 0.5 nM, HEK-293, Cheng Prusoff, read-out: 5HT1A binding constant Ki) worked out at 540 nM; at 5HT2B receptor [8] it was 180 nM; at 5HT2C receptor [13] it was 680 nM. Moreover, on human recombinant 5-HT1A (binding Ki ratio), the “Selectivity for 5HT2A over 5HT1A (Ki)” value is on record as “about 5 fold”. On human 5-HT2A receptor [7] (HEK-293), this compound came in with an EC50 of 520 nM. In addition, at human 5-HT2A receptor [7] (at the highest concentrations, read-out: 5HT2A maximum efficacy), the Emax was 80%. Also, the “5HT2B functional agonist EC50 (IP1)” value on 5HT2B receptor [9] is reported as “could not be determined for lack of activity”. In addition, the IC50 (usually the point on the concentration scale where inhibition reaches its midpoint) at 5HT2B receptor [10] (CHO cells, background serotonin 10 uM, read-out: 5HT2B functional antagonist IC50) is below 10000 nM; at Adrenergic Alpha 1A, 1800 nM; on Adrenergic Alpha 2A it was 1700 nM. Further, on 5HT2B receptor [10] (relative to serotonin), the “5HT2B functional mode (antagonist)” value is listed as “full antagonist”. For the same compound, in [11], the half-life (as a rule, the time needed for the level to fall by half in the phase considered) worked out at 1.1 h. Besides, the Head twitch activity entry with rats is reported as “no significant head twitch activity”. In addition, in the data set with 5HT2C receptor [12], the “Selectivity for 5HT2A over 5HT2C (Ki)” value is listed as “about 6 fold”.
